Experimental data taken from patent publication US20260078341A1, “TREATMENT OF CANCER USING CHIMERIC ANTIGEN RECEPTOR” (Novartis AG, priority 2014, published 2026).
“Also recorded” adds a separate entry of the source.

System: SKOV3
Test: SKOV3 ovarian tumor model, C4-27z CAR-T cells plus exogenous cytokines
Type: in vivo, NSG mice
Conditions: for antitumor efficacy of cytokine in combination with CAR-T cell injection: 5 μg daily i.p. for 7 days with 5×10^6 C4-27z CAR-T cells

Substance	antitumor efficacy of cytokine in combination with CAR-T cell injection	CD4+ and CD8+ T cells in peripheral blood (15 days after adoptive transfer)	human T cell number in the tumor (73 days after tumor challenge)
IL-15: common γ-chain family cytokine, exogenous	best tumor suppression	Highest numbers of CD4+ and CD8+ T cells	highest T cell number in the tumor
IL-18: immunostimulatory, proinflammatory cytokine belonging to the IL-1 family	heaviest tumor burden; also recorded: no enhanced effect on antitumor efficacy		
IL-21: common γ-chain family cytokine, exogenous	best tumor suppression		
